Reference: patent US20260034103A1, “COMPOSITIONS AND METHODS FOR IMPROVING MEMORY AND COGNITION” (priority 2022, published 2026)

What was measured:
[1] = system: adult subjects with major depressive disorder (MDD); test: Phase 2 clinical trial in MDD: QIDS-SR Item #10 Concentration/Decision Making; assay type: in vivo, human; set-up: key to QIDS-SR Item #10 score, Median / QIDS-SR Item #10 score, Min / QIDS-SR Item #10 score, Max: QIDS-SR Item 10 scored 0 (no change) to 3 (cannot concentrate/decide); details: 20 mg/day; for QIDS-SR Item #10 Change from Baseline, Max / QIDS-SR Item #10 Change from Baseline, Mean (SD) / QIDS-SR Item #10 Change from Baseline, Median / QIDS-SR Item #10 Change from Baseline, Min / QIDS-SR Item #10 score, Max / QIDS-SR Item #10 score, Mean (SD) / QIDS-SR Item #10 score, Median / QIDS-SR Item #10 score, Min: mITT, Females
Experimental: (§1) A Phase 2, multicenter, double-blind, randomized, placebo-controlled study of the safety and efficacy of SP-624 in the treatment of adult subjects with major depressive disorder (MDD) as defined by the Diagnostic and Statistical Manual of Mental Disorders, Fifth Edition (DSM-5) was carried out. Following the successful completion of a Screening Phase, subjects were randomized to one of two treatment groups in a 1:1 ratio and received Compound 1 (SP-624) or placebo over a treatment period of four weeks (Treatment Group #1: SP-624 20 mg/day; Treatment Group #2: Placebo).
(§2) Prior to initiating the 4-week treatment period, subjects completed a Screening/Baseline period of up to 28 days, during which time all screening assessments were performed, and any current depression medications discontinued. All screening assessments were completed before discontinuing any current depression medications. Subjects returned for a Baseline Visit to complete efficacy and safety assessments. During the treatment period, subjects returned to the investigative site to complete efficacy and safety assessments at the end of Weeks 1, 2, 3, and 4. After the final dose of study drug, subjects completed a follow-up period of two weeks and returned at the end of Weeks 5 and 6. Subjects may be treated with anti-depressant medications according to physician recommendations after completion of the Week 5 Visit.
(§3) Each dose of Compound 1 was supplied as two capsules, each containing 10 mg of active pharmaceutical ingredient (API). Matching placebo capsules identical in shape and color to the active capsules were used.
The study included several measurements related to cognitive function. The first is the QIDS-SR) Item #10 Concentration/Decision Making. The answer scale is: 0—There is no change in my usual capacity to concentrate or make decisions; 1—I occasionally feel indecisive or find that my attention wanders; 2—Most of the time, I struggle to focus my attention or to make decisions; 3—I cannot concentrate well enough to read or cannot make even minor decisions.

[2] = system: adult subjects with major depressive disorder (MDD); test: Phase 2 clinical trial in MDD: MADRS Item #6 Concentration Difficulties; assay type: in vivo, human; set-up: key to MADRS Item #6 Concentration Difficulty score, Median / MADRS Item #6 Concentration Difficulty score, Min / MADRS Item #6 Concentration Difficulty score, Max: 0 = no concentration difficulty, 6 = unable to read/converse; key to MADRS Item #6 Change from Baseline, Median / MADRS Item #6 Change from Baseline, Max: change from baseline on 0–6 MADRS item scale; details: for MADRS Item #6 Change from Baseline, Max / MADRS Item #6 Change from Baseline, Mean (SD) / MADRS Item #6 Change from Baseline, Median / MADRS Item #6 Change from Baseline, Min / MADRS Item #6 Concentration Difficulty score, Max / MADRS Item #6 Concentration Difficulty score, Mean (SD) / MADRS Item #6 Concentration Difficulty score, Median / MADRS Item #6 Concentration Difficulty score, Min / MADRS Item #6 Change from Baseline, LSM Difference (95% CI) SP-624 vs Placebo: mITT, Females; for MADRS Item #6 Change from Baseline, LSM Difference (95% CI) SP-624 vs Placebo: MMRM
Experimental: as §1, §2, §3
The third cognitive function measurement is MADRS Item #6 Concentration Difficulties (representing difficulties in collecting one's thoughts mounting to incapacitating lack of concentration, rated according to intensity, frequency, and degree of incapacity produced). The answer scale is: 0—No difficulties in concentration; 1—blank; 2—Occasional difficulties in collecting one's thoughts; 3—blank; 4—Difficulties in concentrating and sustaining thought which reduces ability to read or hold a conversation; 5—blank; 6—Unable to read or converse without great difficulty.

[3] = Week 5 (1-week after the last dose), 20 mg/day for four weeks

In the case of `COC1=CC(=O)C[C@@H](C)[C@]12Oc1c(Cl)c(-c3nnc(C)o3)cc(OC)c1C2=O` [Compound 1, (2S,6′R)-7-Chloro-2′,4-dimethoxy-6′-methyl-6-(5-methyl-1,3,4-oxadiazol-2-yl)-3H-spiro[1-benzofuran-2,1′-cyclohex[2]ene]-3,4′-dione], the “QIDS-SR Item #10 Change from Baseline, Max” value ([1]; Week 2) is reported as 1, the “QIDS-SR Item #10 Change from Baseline, Mean (SD)” value ([1]; Week 2) is reported as −0.3 (0.71) and the “QIDS-SR Item #10 Change from Baseline, Median” value ([1]; Week 2) is reported as 0.0. The “QIDS-SR Item #10 Change from Baseline, Min” value ([1]; Week 2) was −3, the “QIDS-SR Item #10 score, Max” value ([1]; Week 2) was 3 and the “QIDS-SR Item #10 score, Mean (SD)” value ([1]; Week 2) was 1.5 (0.82). The “QIDS-SR Item #10 score, Median” value ([1]; Week 2) was 2.0, the “QIDS-SR Item #10 score, Min” value ([1]; Week 2) was 0 and the “QIDS-SR Item #10 Change from Baseline, Max” value ([1]; Week 4) was 1. For the same molecule, the “QIDS-SR Item #10 Change from Baseline, Mean (SD)” value ([1]; Week 4) was −0.6 (0.80), the “QIDS-SR Item #10 Change from Baseline, Median” value ([1]; Week 4) was 0.0 and the “QIDS-SR Item #10 Change from Baseline, Min” value ([1]; Week 4) was −3. The “QIDS-SR Item #10 score, Max” value ([1]; Week 4) was 3, the “QIDS-SR Item #10 score, Mean (SD)” value ([1]; Week 4) was 1.2 (0.86) and the “QIDS-SR Item #10 score, Median” value ([1]; Week 4) was 1.0. For the same molecule, the “QIDS-SR Item #10 score, Min” value ([1]; Week 4) was 0, the “QIDS-SR Item #10 Concentration/Decision Making, improvement in score vs placebo” value ([1]; by week 4 of treatment) was “greater improvement in score” and the “MADRS Item #6 Change from Baseline, Max” value ([2]; Week 1, 20 mg/day) was 1. For the same molecule, the “MADRS Item #6 Change from Baseline, Mean (SD)” value (“MADRS Item #6 Change … (SD)” for short) ([2]; Week 1, 20 mg/day) was −0.7 (1.27), the “MADRS Item #6 Change from Baseline, Median” value (from here on “MADRS Item #6 Change … Median”) ([2]; Week 1, 20 mg/day) was 0 and the “MADRS Item #6 Change from Baseline, Min” value ([2]; Week 1, 20 mg/day) was −5. For the same molecule, the “MADRS Item #6 Concentration Difficulty score, Max” value ([2]; Week 1, 20 mg/day) was 6, the “MADRS Item #6 Concentration Difficulty score, Mean (SD)” value ([2]; Week 1, 20 mg/day) was 3.0 (1.48) and the “MADRS Item #6 Concentration Difficulty score, Median” value ([2]; Week 1, 20 mg/day) was 4. For the same molecule, the “MADRS Item #6 Concentration Difficulty score, Min” value ([2]; Week 1, 20 mg/day) was 0, the “MADRS Item #6 Change from Baseline, LSM Difference (95% CI) SP-624 vs Placebo” value ([2]; Week 1, 20 mg/day, P-value 0.339) was −0.2 (−0.5, 0.2) and the “MADRS Item #6 Change from Baseline, Max” value ([2]; Week 2, 20 mg/day) was 3. The “MADRS Item #6 Change … (SD)” value ([2]; Week 2, 20 mg/day) was −0.7 (1.27), the “MADRS Item #6 Change … Median” value ([2]; Week 2, 20 mg/day) was 0 and the “MADRS Item #6 Change from Baseline, Min” value ([2]; Week 2, 20 mg/day) was −4. The “MADRS Item #6 Concentration Difficulty score, Max” value ([2]; Week 2, 20 mg/day) was 5, the “MADRS Item #6 Concentration Difficulty score, Mean (SD)” value ([2]; Week 2, 20 mg/day) was 3.0 (1.37) and the “MADRS Item #6 Concentration Difficulty score, Median” value ([2]; Week 2, 20 mg/day) was 3. The “MADRS Item #6 Concentration Difficulty score, Min” value ([2]; Week 2, 20 mg/day) was 0, the “MADRS Item #6 Change from Baseline, LSM Difference (95% CI) SP-624 vs Placebo” value ([2]; Week 2, 20 mg/day, P-value 0.753) was 0.1 (−0.3, 0.4) and the “MADRS Item #6 Change from Baseline, Max” value ([2]; Week 3, 20 mg/day) was 0. The “MADRS Item #6 Change … (SD)” value ([2]; Week 3, 20 mg/day) was −1.2 (1.40), the “MADRS Item #6 Change … Median” value ([2]; Week 3, 20 mg/day) was −1 and the “MADRS Item #6 Change from Baseline, Min” value ([2]; Week 3, 20 mg/day) was −5. The “MADRS Item #6 Concentration Difficulty score, Max” value ([2]; Week 3, 20 mg/day) was 4, the “MADRS Item #6 Concentration Difficulty score, Mean (SD)” value ([2]; Week 3, 20 mg/day) was 2.6 (1.58) and the “MADRS Item #6 Concentration Difficulty score, Median” value ([2]; Week 3, 20 mg/day) was 3. For the same molecule, the “MADRS Item #6 Concentration Difficulty score, Min” value ([2]; Week 3, 20 mg/day) was 0, the “MADRS Item #6 Change from Baseline, LSM Difference (95% CI) SP-624 vs Placebo” value ([2]; Week 3, 20 mg/day, P-value 0.214) was −0.3 (−0.7, 0.2) and the “MADRS Item #6 Change from Baseline, Max” value ([2]; Week 4, 20 mg/day) was 1. For the same molecule, the “MADRS Item #6 Change … (SD)” value ([2]; Week 4, 20 mg/day) was −1.2 (1.51), the “MADRS Item #6 Change … Median” value ([2]; Week 4, 20 mg/day) was −1 and the “MADRS Item #6 Change from Baseline, Min” value ([2]; Week 4, 20 mg/day) was −4. The “MADRS Item #6 Concentration Difficulty score, Max” value ([2]; Week 4, 20 mg/day) was 5, the “MADRS Item #6 Concentration Difficulty score, Mean (SD)” value ([2]; Week 4, 20 mg/day) was 2.5 (1.67) and the “MADRS Item #6 Concentration Difficulty score, Median” value ([2]; Week 4, 20 mg/day) was 3. The “MADRS Item #6 Concentration Difficulty score, Min” value ([2]; Week 4, 20 mg/day) was 0, the “MADRS Item #6 Change from Baseline, LSM Difference (95% CI) SP-624 vs Placebo” value ([2]; Week 4, 20 mg/day, P-value 0.144) was −0.3 (−0.8, 0.1) and the “MADRS Item #6 Change from Baseline, Max” value [2, 3] was 1. The “MADRS Item #6 Change … (SD)” value [2, 3] was −1.3 (1.51), the “MADRS Item #6 Change … Median” value [2, 3] was −1 and the “MADRS Item #6 Change from Baseline, Min” value [2, 3] was −5. For the same molecule, the “MADRS Item #6 Concentration Difficulty score, Max” value [2, 3] was 5, the “MADRS Item #6 Concentration Difficulty score, Mean (SD)” value [2, 3] was 2.4 (1.63) and the “MADRS Item #6 Concentration Difficulty score, Median” value [2, 3] was 3. For the same molecule, the “MADRS Item #6 Concentration Difficulty score, Min” value [2, 3] was 0, the “MADRS Item #6 Change from Baseline, LSM Difference (95% CI) SP-624 vs Placebo” value ([2]; Week 5 (1-week after the last dose), 20 mg/day for four weeks, P-value 0.007) was −0.6 (−1.1, −0.2) and the “MADRS Item #6 Concentration Difficulties, improvement in score vs placebo” value ([2]; all measurement times through week 5, 20 mg/day) was “greater improvement in score”.
